Experimental findings from PubChem BioAssay (NCI) are described below.

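Five compound concentrations were applied to cells in 96-well plates for 48 hours; endpoints were derived by simple linear interpolation of the resulting dose-response curve. GI50 is the concentration that inhibits growth by half. The concentration for full growth arrest is given as TGI.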

Test systems include A549 NSCLC; KM12 colon; M14 melanoma; MOLT-4 leukemia; RPMI-8226 leukemia; SF-539 CNS; SK-MEL-28 melanoma; T-47D breast; U251 CNS; UACC-257 melanoma.
What all share (experiment): growth of human tumour cells (NCI), 48 h

`CNC(=O)OCc1nc(SC)n(C)c1COC(=O)NC`: the TGI in the assay with A549 NSCLC was 836 µM; in the assay on KM12 colon, 380 µM; in the assay with M14 melanoma, 347 µM; in the assay with MOLT-4 leukemia, 142 µM; in the assay with RPMI-8226 leukemia, 736 µM; with SF-539 CNS, 299 µM. The TGI amounted to 380 µM in the assay on SK-MEL-28 melanoma, 554 µM with T-47D breast, 599 µM with U251 CNS and 335 µM in the assay with UACC-257 melanoma.
`CSC1=Nc2c(c(C)c(-c3ccccc3)n2COC(CO)CO)C2=NC(=O)CC(C)N12` (configuration not stated): the GI50 in the assay with A549 NSCLC, in the assay with KM12 colon, in the assay on MOLT-4 leukemia, in the assay on RPMI-8226 leukemia, with SF-539 CNS and in the assay with SK-MEL-28 melanoma was over 100 µM each time. Moreover, the GI50 in the assay on T-47D breast, in the assay on U251 CNS and with UACC-257 melanoma was over 100 µM throughout. Besides, the TGI in the assay on A549 NSCLC, in the assay on KM12 colon, in the assay on MOLT-4 leukemia, in the assay on RPMI-8226 leukemia, with SF-539 CNS and in the assay on SK-MEL-28 melanoma was over 100 µM each time. Moreover, the TGI in the assay with T-47D breast, with U251 CNS and in the assay with UACC-257 melanoma was over 100 µM in each case.
As for `COc1ccc(/C=C/C(=O)c2cc3c(N)c(C(=O)Nc4ccc(OC)cc4)sc3nc2C)cc1`, the GI50 in the assay on A549 NSCLC was 0.231 µM; with KM12 colon it was 0.203 µM; in the assay with M14 melanoma it was 0.19 µM; in the assay with MOLT-4 leukemia, 0.697 µM; in the assay on RPMI-8226 leukemia it was 0.348 µM; in the assay on SF-539 CNS, 0.327 µM. The GI50 in the assay on SK-MEL-28 melanoma is 0.4 µM; in the assay with T-47D breast, 0.403 µM; in the assay on U251 CNS, 1.65 µM; in the assay on UACC-257 melanoma it was over 23.4 µM. Moreover, the TGI in the assay on A549 NSCLC was over 50 µM; in the assay with KM12 colon, 20.5 µM; in the assay on MOLT-4 leukemia it was over 50 µM; in the assay on RPMI-8226 leukemia, over 34 µM; in the assay with SF-539 CNS, 1.54 µM; in the assay on SK-MEL-28 melanoma, over 50 µM. Also, the TGI in the assay with T-47D breast was over 50 µM; in the assay with U251 CNS it was over 30.9 µM; in the assay on UACC-257 melanoma it was over 50 µM.
As for `CC(=O)Oc1cc2cnc3c4cc(OC(C)=O)c(OC(C)=O)cc4ccc3c2cc1OC(C)=O`, the GI50 in the assay on A549 NSCLC is 3.69 µM; with KM12 colon, 2.47 µM; with M14 melanoma it was 1.78 µM; with MOLT-4 leukemia, 0.812 µM; in the assay on RPMI-8226 leukemia, 1.66 µM; with SF-539 CNS, 1.3 µM. The GI50 with SK-MEL-28 melanoma was 3.15 µM; in the assay with T-47D breast, 0.898 µM; with U251 CNS, 0.548 µM; in the assay on UACC-257 melanoma, 2.56 µM. The TGI in the assay on A549 NSCLC is over 100 µM; with KM12 colon, over 100 µM; with M14 melanoma, over 100 µM; in the assay with MOLT-4 leukemia, over 100 µM; in the assay with RPMI-8226 leukemia it was over 100 µM; in the assay with SF-539 CNS, 4.46 µM. Also, the TGI in the assay with SK-MEL-28 melanoma is over 100 µM; in the assay on T-47D breast, over 100 µM; in the assay on U251 CNS, 10.6 µM; with UACC-257 melanoma, over 100 µM.
Turning to `O=c1[nH]cnc2n[nH]nc12`, the TGI in the assay on A549 NSCLC is over 100 µM; with KM12 colon it was over 100 µM; in the assay on M14 melanoma, 30.8 µM; in the assay on MOLT-4 leukemia, 98.4 µM; with RPMI-8226 leukemia it was over 65.9 µM; with SF-539 CNS, 23.9 µM. Also, the TGI with SK-MEL-28 melanoma was over 61.6 µM; with T-47D breast, over 100 µM; in the assay with U251 CNS, over 100 µM; in the assay with UACC-257 melanoma, over 100 µM. In the assay on T-47D breast, the GI50 was 3.49 µM.
With `O=C1Nc2ccc3c(c2/C1=C\c1cc2c(cc1Br)OCO2)OCO3`, the GI50 in the assay on A549 NSCLC is 0.731 µM; in the assay on KM12 colon, 0.307 µM; with M14 melanoma, 0.341 µM; with MOLT-4 leukemia it was 0.489 µM; in the assay on RPMI-8226 leukemia it was 0.27 µM; in the assay with SF-539 CNS, 0.311 µM. Further, the GI50 with SK-MEL-28 melanoma was 0.911 µM; in the assay on T-47D breast, 0.969 µM; in the assay with U251 CNS it was 0.422 µM; in the assay with UACC-257 melanoma, 0.685 µM. Further, the TGI was 2.49 µM in the assay with A549 NSCLC; 1.43 µM with KM12 colon; 5.76 µM in the assay on M14 melanoma; over 100 µM in the assay with MOLT-4 leukemia; 0.801 µM with RPMI-8226 leukemia; 1.12 µM in the assay on SF-539 CNS. Further, the figures for the TGI with SK-MEL-28 melanoma, in the assay with T-47D breast and with U251 CNS were 5.32 µM, 6.58 µM and 1.68 µM, respectively.
Consider `COc1ccc(-c2c(N)noc2-c2cc(OC)c3c(c2)OCCO3)cc1`, for which the GI50 is 0.0101 µM with A549 NSCLC; under 0.01 µM in the assay with KM12 colon; under 0.01 µM in the assay with M14 melanoma; 0.0353 µM with MOLT-4 leukemia; 0.0333 µM in the assay with RPMI-8226 leukemia; 0.0121 µM in the assay with SF-539 CNS. For the same compound, the GI50 was 0.026 µM in the assay on SK-MEL-28 melanoma, 0.64 µM in the assay with T-47D breast and under 0.0119 µM in the assay on U251 CNS. For the same compound, the TGI is over 41.6 µM in the assay with A549 NSCLC; 3.8 µM in the assay on KM12 colon; 0.048 µM in the assay on M14 melanoma; 5.31 µM with MOLT-4 leukemia; 17.9 µM in the assay with RPMI-8226 leukemia; 1.28 µM with SF-539 CNS. Besides, the figures for the TGI in the assay on SK-MEL-28 melanoma and in the assay on T-47D breast were over 100 µM and 41.2 µM, respectively.
As for `COc1cc(-c2nn(-c3cccc(NC(=O)CCNc4ccc(N5CCOCC5)cc4)c3)cc2-c2ccncc2)ccc1Cl`, the GI50 is 1.46 µM with A549 NSCLC; 2.44 µM in the assay with KM12 colon; 2.58 µM in the assay with M14 melanoma; 1.6 µM in the assay with MOLT-4 leukemia; 2.91 µM with SF-539 CNS; 3.13 µM with SK-MEL-28 melanoma. Further, the values for the GI50 in the assay with T-47D breast, in the assay with U251 CNS and in the assay with UACC-257 melanoma were 1.99 µM, 2.52 µM and 2.38 µM, respectively. Moreover, the TGI in the assay with A549 NSCLC is 25.1 µM; in the assay on KM12 colon, 20 µM; with M14 melanoma, 10.5 µM; in the assay on MOLT-4 leukemia, 6.98 µM; in the assay with SF-539 CNS, 19.4 µM; in the assay on SK-MEL-28 melanoma it was over 100 µM. Moreover, the TGI is 7.91 µM with T-47D breast, 63 µM in the assay with U251 CNS and 8.72 µM in the assay on UACC-257 melanoma.
